Source: publication PMC3545233 (Scientific Reports, 2013)
Where two headings read alike, the source gives them in different places.

Assays:
recombinant hAChE = recombinant hAChE (Homo sapiens, UniProt P22303); assay: Time-course and dilution experiments of AChE inhibition; assay type: biochemical
recombinant agAP-AChE [1] = target: T1, recombinant agAP-AChE (Anopheles gambiae, UniProt Q869C3); assay: biochemical; parameters: species or system Anopheles gambiae sensu stricto
recombinant agAP-AChE [2] = target: T1, recombinant agAP-AChE; assay: Time-course and dilution experiments of AChE inhibition; assay type: biochemical, Anopheles gambiae sensu stricto; conditions: for inhibition at 50 µM: read-out: inhibition of the enzyme activity, agAP-AChE, 50 μM NEM
recombinant agAP-AChE [3] = target: T1, recombinant agAP-AChE; assay type: biochemical, Anopheles gambiae sensu stricto; conditions: ≤15 min, paraoxon 333–2000 nM

T1 sequence (Q869C3 39-737): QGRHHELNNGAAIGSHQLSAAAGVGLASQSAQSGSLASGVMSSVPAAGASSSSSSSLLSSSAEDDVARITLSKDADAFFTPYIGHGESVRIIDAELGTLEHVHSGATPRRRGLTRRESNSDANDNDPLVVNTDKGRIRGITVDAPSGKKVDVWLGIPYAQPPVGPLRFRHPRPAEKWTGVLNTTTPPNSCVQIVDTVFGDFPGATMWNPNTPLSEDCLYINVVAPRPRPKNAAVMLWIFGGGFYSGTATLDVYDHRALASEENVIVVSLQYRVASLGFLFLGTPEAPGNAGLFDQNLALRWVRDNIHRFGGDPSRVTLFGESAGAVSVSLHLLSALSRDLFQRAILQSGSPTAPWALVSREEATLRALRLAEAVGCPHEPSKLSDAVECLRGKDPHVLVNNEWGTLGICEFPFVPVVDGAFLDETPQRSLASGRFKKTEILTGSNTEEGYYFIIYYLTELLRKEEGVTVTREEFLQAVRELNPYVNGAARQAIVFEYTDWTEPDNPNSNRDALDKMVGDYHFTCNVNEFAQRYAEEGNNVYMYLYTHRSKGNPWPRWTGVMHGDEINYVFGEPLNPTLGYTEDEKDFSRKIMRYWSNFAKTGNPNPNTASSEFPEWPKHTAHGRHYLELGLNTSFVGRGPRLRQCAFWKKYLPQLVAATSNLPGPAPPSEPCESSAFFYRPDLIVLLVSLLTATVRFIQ
Sequence of recombinant hAChE (P22303 32-614): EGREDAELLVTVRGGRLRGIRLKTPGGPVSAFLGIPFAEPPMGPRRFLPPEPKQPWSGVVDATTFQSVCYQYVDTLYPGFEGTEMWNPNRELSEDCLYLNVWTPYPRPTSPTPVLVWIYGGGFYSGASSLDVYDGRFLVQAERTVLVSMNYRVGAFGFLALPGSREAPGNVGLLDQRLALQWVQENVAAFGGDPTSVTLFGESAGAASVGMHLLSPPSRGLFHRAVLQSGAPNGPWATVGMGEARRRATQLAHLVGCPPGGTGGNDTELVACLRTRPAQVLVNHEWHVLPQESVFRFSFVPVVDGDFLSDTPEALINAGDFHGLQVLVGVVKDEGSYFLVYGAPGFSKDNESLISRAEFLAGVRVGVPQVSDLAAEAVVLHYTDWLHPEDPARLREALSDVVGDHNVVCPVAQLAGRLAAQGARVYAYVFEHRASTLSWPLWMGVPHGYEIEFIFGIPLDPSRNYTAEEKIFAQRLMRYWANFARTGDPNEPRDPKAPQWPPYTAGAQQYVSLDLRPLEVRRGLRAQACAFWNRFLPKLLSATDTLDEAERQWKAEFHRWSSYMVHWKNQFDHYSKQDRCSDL

Structure (SMILES)	irreversible inhibition (time-course and dilution experiments) (recombinant hAChE)	Ki (recombinant agAP-AChE [1])	irreversible inhibition (time-course and dilution experiments) (recombinant agAP-AChE [2]; agAP-AChE)	other results
Cl.O=C1CCC(=O)N1CCCCCCCCCCCCCCCCCCN1CCCCC1 [PYS18, 1-(18-(Piperidin-1-yl)octadecyl)pyrrolidine-2,5-dione hydrochloride]	irreversibly inhibited neither	26200 nM	irreversibly inhibited neither	
O=C1C=CC(=O)N1CCCCCCCCCCCCCCCCCCCC[n+]1ccccc1.[Br-] [PM20, 1-(20-(2,5-Dioxo-2,5-dihydro-1H-pyrrol-1-yl)eicosyl)pyridinium bromide]	not hAChE	400 nM	irreversibly inhibited agAP-AChE	kinact/KI fold higher than that of paraoxon (recombinant agAP-AChE [3]): 239 fold; decrease of the enzyme activity (recombinant agAP-AChE [2]; agAP-AChE, combination of 50 μM NEM and 6.7 nM PM20 for 30 minutes): 94 ± 3%; inhibition at 0.0067 µM (recombinant agAP-AChE [2]; read-out: enzyme activity inhibited, agAP-AChE, incubated with 50 μM NEM, then treated with 6.7 nM PM20 for 30 minutes): 96 ± 4%
CCOP(=O)(OCC)Oc1ccc([N+](=O)[O-])cc1 [Paraoxon, paraoxon, reference compound]	irreversibly inhibited both enzymes		irreversibly inhibited both enzymes	
CCN1C(=O)C=CC1=O [NEM, N-ethylmaleimide, reference compound]			inability of NEM to irreversibly inhibit agAP-AChE	inhibition at 50 µM (recombinant agAP-AChE [2]; 30 minutes): 40 ± 1%; inhibition at 50 µM (recombinant agAP-AChE [2]; immediately): 36 ± 2%
O=C([O-])C(F)(F)F.O=C1CCC(=O)N1CCCCCCCCCCCCCCCCCCCC[n+]1ccccc1 [PMS20, 1-(20-(2,5-Dioxopyrrolidin-1-yl)eicosyl)pyridin-1-ium 2,2,2-trifluoroacetate]	irreversibly inhibited neither	420 nM	irreversibly inhibited neither	
CCN1C(=O)CCC1=O [1-ethylpyrrolidine-2,5-dione, reference compound]				irreversible or reversible inhibition (recombinant hAChE; inhibitor concentrations up to 10 mM, data not shown): did not irreversibly or reversibly inhibit; irreversible or reversible inhibition (recombinant agAP-AChE [2]; agAP-AChE, inhibitor concentrations up to 10 mM, data not shown): did not irreversibly or reversibly inhibit
Cl.O=C1C=CC(=O)N1CCCCCCCCCCCCCCCCCCN1CCCCC1 [PY18, 1-(18-(Piperidin-1-yl)octadecyl)-1H-pyrrole-2,5-dione hydrochloride]	not hAChE		irreversibly inhibited agAP-AChE	
